Assay results reported in US20080234276A1, “Heterocyclic Triazines as Hypoxic Selective Protein Kinase Inhibitors” (SENTINEL ONCOLOGY LIMITED, priority 2005, published 2008).

How the values were obtained:
Format in all cases: biochemical
Arg (h) = biological target: T1, Arg (h) (Homo sapiens, UniProt P42684); experiment: Arg (h) kinase assay (Upstate, 33P-ATP filtermat); conditions: 100 uM of inhibitor; ATP 45 uM
T1 construct: purchased Upstate Ltd
Experimental: (§1) The compounds of the invention prepared in Examples 1-32 were tested for kinase inhibition against a range of common protein kinases. All kinase assays were conducted at Upstate Ltd, Gemini Crescent, Dundee Technology Park, Dundee, DD2 1SW, UK in accordance with its standard protocols as follows:
(§2) In a final reaction volume of 25 μl, Arg (h) (5-10 mU) is incubated with 8 mM MOPS pH 7.0, 0.2 mM EDTA, 50 μM EAIYAAPFAKKK, 10 mM MgAcetate and [[…]-33P-ATP] (specific activity approx. 500 cpm/pmol, concentration as required). The reaction is initiated by the addition of the MgATP mix. After incubation for 40 minutes at room temperature, the reaction is stopped by the addition of 5 μl of a 3% phosphoric acid solution. 10 μl of the reaction is then spotted onto a P30 filtermat and washed three times for 5 minutes in 75 mM phosphoric acid and once in methanol prior to drying and scintillation counting.
(§3) Data for compounds. ATP concentrations are: Arg=45 uM; abl=45 uM; AuroraA=15 uM; Chk1=90 uM; KDR=90 uM; P70S6=15 uM. Figures represent the % inhibition when tested at 100 uM of inhibitor.

Abl (h) = biological target: T2, Abl (h) (Homo sapiens, UniProt P00519); experiment: Abl (h) kinase assay (Upstate, 33P-ATP filtermat); conditions: 100 uM of inhibitor; ATP 45 uM
T2 construct: purchased Upstate Ltd
T2 sequence (P00519 whole entry): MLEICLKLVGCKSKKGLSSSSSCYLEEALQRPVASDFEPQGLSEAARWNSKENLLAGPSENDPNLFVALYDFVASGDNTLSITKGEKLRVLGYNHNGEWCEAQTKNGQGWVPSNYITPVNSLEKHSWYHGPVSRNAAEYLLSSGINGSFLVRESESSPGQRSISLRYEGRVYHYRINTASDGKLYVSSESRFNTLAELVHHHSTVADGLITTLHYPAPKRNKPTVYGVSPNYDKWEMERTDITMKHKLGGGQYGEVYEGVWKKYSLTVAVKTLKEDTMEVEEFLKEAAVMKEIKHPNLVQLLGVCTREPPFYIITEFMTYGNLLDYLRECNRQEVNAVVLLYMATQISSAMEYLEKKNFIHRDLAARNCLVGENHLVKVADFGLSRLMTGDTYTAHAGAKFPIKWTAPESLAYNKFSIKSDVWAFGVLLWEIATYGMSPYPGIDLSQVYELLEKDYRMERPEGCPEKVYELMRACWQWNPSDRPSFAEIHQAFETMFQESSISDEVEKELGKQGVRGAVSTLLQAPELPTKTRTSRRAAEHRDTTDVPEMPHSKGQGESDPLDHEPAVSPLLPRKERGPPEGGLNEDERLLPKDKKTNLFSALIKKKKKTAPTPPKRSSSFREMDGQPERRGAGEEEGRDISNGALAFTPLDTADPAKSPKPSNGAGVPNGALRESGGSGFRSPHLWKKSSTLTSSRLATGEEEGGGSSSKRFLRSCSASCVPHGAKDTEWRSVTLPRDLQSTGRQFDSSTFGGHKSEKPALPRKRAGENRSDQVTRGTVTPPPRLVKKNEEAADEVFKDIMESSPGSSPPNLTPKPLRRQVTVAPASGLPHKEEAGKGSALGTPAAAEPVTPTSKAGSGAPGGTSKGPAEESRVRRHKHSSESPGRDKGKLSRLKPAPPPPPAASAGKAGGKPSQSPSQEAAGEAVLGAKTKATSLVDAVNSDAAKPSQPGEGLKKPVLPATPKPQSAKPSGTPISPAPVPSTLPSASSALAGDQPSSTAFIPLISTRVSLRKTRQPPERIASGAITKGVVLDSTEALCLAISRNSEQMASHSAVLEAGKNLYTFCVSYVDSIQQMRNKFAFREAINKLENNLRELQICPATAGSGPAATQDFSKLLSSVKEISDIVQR
Experimental: as §1
as §2, with “Abl” for “Arg”
as §3

CHK1 (h) = biological target: T3, CHK1 (h) (Homo sapiens, UniProt O14757); experiment: CHK1 (h) kinase assay (Upstate, 33P-ATP filtermat); conditions: 100 uM of inhibitor; ATP 90 uM
T3 construct: purchased Upstate Ltd
T3 sequence (O14757 1-476): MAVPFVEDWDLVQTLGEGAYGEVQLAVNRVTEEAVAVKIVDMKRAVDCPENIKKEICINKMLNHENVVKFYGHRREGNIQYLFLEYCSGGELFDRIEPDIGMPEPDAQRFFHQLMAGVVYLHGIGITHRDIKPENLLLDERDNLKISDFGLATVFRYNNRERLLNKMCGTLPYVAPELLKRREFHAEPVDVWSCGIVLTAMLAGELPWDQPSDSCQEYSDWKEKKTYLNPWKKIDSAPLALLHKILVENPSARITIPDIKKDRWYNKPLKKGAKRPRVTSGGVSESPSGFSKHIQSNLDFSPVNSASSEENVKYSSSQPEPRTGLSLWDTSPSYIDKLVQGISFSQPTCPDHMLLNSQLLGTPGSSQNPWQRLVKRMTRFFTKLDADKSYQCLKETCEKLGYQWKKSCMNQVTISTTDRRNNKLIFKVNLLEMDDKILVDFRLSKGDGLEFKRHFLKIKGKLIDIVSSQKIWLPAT
Experimental: as §1
as §2, with “μl, CHK1” for “μl, Arg”, “EDTA, 200” for “EDTA, 50”, “μM […],” for “μM EAIYAAPFAKKK,”, “and […]-33P-ATP]” for “and [[…]-33P-ATP]”
as §3

Aurora-A (h) = biological target: T4, Aurora-A (h) (Homo sapiens, UniProt O14965); experiment: Aurora-A (h) kinase assay (Upstate, 33P-ATP filtermat); conditions: 100 uM of inhibitor, ATP 15 uM; for inhibition at 100 µM: read-out: AuroraA (h) % inhibition
T4 construct: purchased Upstate Ltd
T4 sequence (O14965 1-403): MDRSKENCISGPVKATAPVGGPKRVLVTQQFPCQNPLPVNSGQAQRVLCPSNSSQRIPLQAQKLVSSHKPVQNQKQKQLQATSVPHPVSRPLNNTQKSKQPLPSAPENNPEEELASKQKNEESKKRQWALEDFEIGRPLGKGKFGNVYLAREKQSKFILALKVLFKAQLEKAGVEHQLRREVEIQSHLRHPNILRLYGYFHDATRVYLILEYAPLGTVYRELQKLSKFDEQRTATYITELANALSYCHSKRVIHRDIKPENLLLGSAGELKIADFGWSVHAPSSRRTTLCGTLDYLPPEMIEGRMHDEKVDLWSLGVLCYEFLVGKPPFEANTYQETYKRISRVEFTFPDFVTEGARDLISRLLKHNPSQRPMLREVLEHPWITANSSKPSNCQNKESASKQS
Experimental: as §1
as §2, with “μl, Aurora-A” for “μl, Arg”, “EDTA, 200” for “EDTA, 50”, “μM LRRASLG (Kemptide),” for “μM EAIYAAPFAKKK,”, “and […]-33P-ATP]” for “and [[…]-33P-ATP]”, “in 50” for “in 75”
as §3

KDR (h) = biological target: T5, KDR (h) (Homo sapiens, UniProt P35968); experiment: KDR (h) kinase assay (Upstate, 33P-ATP filtermat); conditions: 100 uM of inhibitor; ATP 90 uM
T5 construct: purchased Upstate Ltd
T5 sequence (P35968 20-1356): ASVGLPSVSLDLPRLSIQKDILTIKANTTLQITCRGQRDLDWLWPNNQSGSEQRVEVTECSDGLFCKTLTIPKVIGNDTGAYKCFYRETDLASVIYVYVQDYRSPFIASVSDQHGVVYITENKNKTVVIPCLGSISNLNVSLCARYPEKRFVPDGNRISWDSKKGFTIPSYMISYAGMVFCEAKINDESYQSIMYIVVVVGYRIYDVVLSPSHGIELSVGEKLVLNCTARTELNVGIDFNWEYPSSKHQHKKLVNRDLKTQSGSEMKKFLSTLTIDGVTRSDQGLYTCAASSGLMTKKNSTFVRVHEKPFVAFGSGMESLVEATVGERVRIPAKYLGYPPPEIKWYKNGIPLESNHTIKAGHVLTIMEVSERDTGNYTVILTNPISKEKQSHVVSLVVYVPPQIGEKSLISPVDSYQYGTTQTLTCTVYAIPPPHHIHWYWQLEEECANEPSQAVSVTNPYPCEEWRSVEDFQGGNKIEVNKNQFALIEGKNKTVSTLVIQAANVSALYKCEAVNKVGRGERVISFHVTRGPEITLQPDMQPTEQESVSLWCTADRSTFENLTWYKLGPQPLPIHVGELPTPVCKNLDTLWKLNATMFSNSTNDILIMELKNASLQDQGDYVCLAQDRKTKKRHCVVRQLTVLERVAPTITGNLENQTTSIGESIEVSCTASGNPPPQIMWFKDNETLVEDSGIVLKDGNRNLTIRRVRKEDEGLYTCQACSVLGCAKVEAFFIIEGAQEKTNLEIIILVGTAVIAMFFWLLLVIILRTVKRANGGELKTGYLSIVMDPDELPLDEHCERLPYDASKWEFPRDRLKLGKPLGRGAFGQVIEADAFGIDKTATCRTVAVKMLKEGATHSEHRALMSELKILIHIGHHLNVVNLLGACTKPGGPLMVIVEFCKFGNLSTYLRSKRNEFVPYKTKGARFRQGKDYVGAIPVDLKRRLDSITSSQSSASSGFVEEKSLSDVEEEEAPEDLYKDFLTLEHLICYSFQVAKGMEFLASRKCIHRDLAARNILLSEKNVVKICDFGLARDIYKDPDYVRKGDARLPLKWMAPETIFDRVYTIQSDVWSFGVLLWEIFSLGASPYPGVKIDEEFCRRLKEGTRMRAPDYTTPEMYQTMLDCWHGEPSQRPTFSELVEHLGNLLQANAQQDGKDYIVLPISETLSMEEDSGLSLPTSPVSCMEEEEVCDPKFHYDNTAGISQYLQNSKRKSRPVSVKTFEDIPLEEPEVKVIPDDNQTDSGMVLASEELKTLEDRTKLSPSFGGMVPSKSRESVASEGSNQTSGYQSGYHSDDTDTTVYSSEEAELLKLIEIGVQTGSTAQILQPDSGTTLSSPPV
Experimental: as §1
as §2, with “KDR” for “Arg”, “0.33 mg/ml myelin basic protein,” for “50 μM EAIYAAPFAKKK,”
as §3

p70S6K (h) = biological target: T6, p70S6K (h) (Homo sapiens, UniProt P23443); experiment: p70S6K (h) kinase assay (Upstate, 33P-ATP filtermat); conditions: 100 uM of inhibitor, ATP 15 uM; for inhibition at 100 µM: read-out: P70S6 (h) % inhibition
T6 construct: purchased Upstate Ltd
T6 sequence (P23443 whole entry): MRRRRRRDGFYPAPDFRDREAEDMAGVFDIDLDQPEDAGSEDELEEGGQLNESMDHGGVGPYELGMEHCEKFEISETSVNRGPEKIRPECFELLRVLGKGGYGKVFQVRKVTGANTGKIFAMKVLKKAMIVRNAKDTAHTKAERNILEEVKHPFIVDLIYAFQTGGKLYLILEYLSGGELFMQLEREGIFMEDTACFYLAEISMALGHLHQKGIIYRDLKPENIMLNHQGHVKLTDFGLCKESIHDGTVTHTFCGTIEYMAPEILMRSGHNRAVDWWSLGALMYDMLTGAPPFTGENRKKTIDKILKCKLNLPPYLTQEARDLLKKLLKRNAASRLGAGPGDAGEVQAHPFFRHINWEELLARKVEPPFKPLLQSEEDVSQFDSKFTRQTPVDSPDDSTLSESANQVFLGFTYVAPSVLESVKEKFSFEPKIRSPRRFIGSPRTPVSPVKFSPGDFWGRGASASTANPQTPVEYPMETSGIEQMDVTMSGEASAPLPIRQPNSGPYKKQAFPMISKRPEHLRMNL
Experimental: as §1
as §2, with “μl, p70S6K” for “μl, Arg”, “EDTA, 100” for “EDTA, 50”, “μM KKRNRTLTV,” for “μM EAIYAAPFAKKK,”
as §3

T1 sequence (P42684 whole entry): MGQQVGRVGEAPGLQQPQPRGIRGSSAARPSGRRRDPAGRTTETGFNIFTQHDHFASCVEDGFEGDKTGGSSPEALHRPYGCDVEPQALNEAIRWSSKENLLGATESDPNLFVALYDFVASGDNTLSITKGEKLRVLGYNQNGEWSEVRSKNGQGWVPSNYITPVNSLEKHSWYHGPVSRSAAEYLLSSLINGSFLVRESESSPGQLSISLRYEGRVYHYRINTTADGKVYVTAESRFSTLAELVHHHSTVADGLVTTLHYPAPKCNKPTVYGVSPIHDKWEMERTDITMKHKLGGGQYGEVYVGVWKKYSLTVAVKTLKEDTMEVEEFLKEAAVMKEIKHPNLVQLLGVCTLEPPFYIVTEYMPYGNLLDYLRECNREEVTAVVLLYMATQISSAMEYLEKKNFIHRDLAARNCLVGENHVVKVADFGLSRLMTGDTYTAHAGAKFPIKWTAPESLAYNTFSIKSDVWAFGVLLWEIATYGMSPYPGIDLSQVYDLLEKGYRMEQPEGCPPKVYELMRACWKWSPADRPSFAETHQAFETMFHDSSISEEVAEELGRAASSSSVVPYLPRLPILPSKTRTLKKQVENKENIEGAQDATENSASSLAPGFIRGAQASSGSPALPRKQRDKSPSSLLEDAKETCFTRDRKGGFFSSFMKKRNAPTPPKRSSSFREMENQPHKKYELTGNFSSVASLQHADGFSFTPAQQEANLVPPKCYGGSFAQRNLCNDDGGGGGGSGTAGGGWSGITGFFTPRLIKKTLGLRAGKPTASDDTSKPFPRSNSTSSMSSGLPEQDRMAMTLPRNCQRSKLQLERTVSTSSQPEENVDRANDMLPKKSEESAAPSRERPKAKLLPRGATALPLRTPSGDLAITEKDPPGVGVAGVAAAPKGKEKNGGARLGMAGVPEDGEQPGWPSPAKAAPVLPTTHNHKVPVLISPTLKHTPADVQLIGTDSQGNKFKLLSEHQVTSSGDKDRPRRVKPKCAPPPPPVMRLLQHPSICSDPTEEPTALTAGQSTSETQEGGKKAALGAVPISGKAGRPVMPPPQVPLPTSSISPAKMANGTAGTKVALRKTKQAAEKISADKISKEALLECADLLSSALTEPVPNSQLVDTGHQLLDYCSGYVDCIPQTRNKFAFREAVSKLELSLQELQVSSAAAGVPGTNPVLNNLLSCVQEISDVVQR

Row | SMILES | Arg (h) % inhibition (Arg (h)) [%] | Abl (h) % inhibition (Abl (h)) [%] | Chk1 (h) % inhibition (CHK1 (h)) [%] | AuroraA (h) % inhibition (Aurora-A (h)) [%] | KDR (h) % inhibition (KDR (h)) [%] | P70S6 (h) % inhibition (p70S6K (h)) [%] | inhibition at 100 µM (KDR (h)) [%] | inhibition at 100 µM (Arg (h)) [%] | inhibition at 100 µM (Abl (h)) [%] | inhibition at 100 µM (CHK1 (h)) [%] | inhibition at 100 µM (Aurora-A (h)) [%] | inhibition at 100 µM (p70S6K (h)) [%]
1 | [O-][n+]1nc(Nc2ccc(N3CCNCC3)cc2)nc2ccccc21 [Example 5, (1-Oxy-benzo[1,2,4]triazin-3-yl)-(4-piperazin-1-yl-phenyl)-amine] | 78 | 83 | 7 | 24 | – | – | – | – | – | – | – | –
2 | Nc1nc2ccc(-c3cn[nH]c3)cc2[n+]([O-])n1 [Example 7, 1-Oxy-7-(1H-pyrazol-4-yl)-benzo[1,2,4]triazin-3-ylamine] | 81 | 86 | 31 | 98 | 98 | 99 | – | – | – | – | – | –
3 | [O-][n+]1nc(Nc2ccc(N3CCNCC3)nc2)nc2ccccc21 [Example 20, (1-Oxy-benzo[1,2,4]triazin-3-yl)-(6-piperazin-1-yl-pyridin-3-yl)-amine] | 77 | 72 | 1 | 52 | – | – | – | – | – | – | – | –
4 | Nc1nnc2cc(-c3cn[nH]c3)ccc2n1 [Example 8, 7-(1H-Pyrazol-4-yl)-benzo[1,2,4]triazin-3-ylamine] | – | – | – | – | – | – | 96 | 82 | 87 | 26 | 100 | 97
5 | c1ccc2nc(Nc3ccc(N4CCNCC4)cc3)nnc2c1 [Example 6, Benzo[1,2,4]triazin-3-yl-(4-piperazin-1-yl-phenyl)-amine] | – | – | – | – | – | – | – | 92 | 89 | 33 | 41 | –
6 | c1cncc(Nc2nnc3ccccc3n2)c1 [Example 3, Benzo[1,2,4]triazin-3-yl-pyridin-3-yl-amine] | – | – | – | – | – | – | – | 71 | 65 | 21 | 68 | 9
7 | Cc1cc(Nc2nnc3ccccc3n2)n[nH]1 [Example 11, Benzo[1,2,4]triazin-3-yl-(5-methyl-1H-pyrazol-3-yl)-amine] | – | – | – | – | – | – | – | 40 | 36 | 32 | 37 | –
